Results taken from the NIST ThermoML archive (doi:10.1021/je100832h).

Conditions: Liquid; for mass density: 101.32 kPa, Vibrating tube method; for vapor or sublimation pressure: Ebulliometric method (Recirculating still)

CCOC(C)=O [ethyl acetate]
Conditions | mass density [kg/m3] | vapor or sublimation pressure [kPa]
291.15 K | 902.88 | –
297.17 K | – | 11.89
298.15 K | 894.4 | –
303.35 K | – | 16.04
306.25 K | – | 18.33
308.86 K | – | 20.64
310.67 K | – | 22.44
312.53 K | – | 24.34
315.44 K | – | 27.63
318.15 K | 869.6 | –
318.46 K | – | 31.33
321.01 K | – | 34.85
323.47 K | – | 38.43
324.8 K | – | 40.61
327.41 K | – | 44.98
328.15 K | 857.17 | –
329.77 K | – | 49.27
331.51 K | – | 52.56
333.07 K | – | 55.72
335.02 K | – | 59.91
336.33 K | – | 62.83
337.91 K | – | 66.49
339.09 K | – | 69.34
340.23 K | – | 72.26
341.69 K | – | 76.02
343.03 K | – | 79.83
344.11 K | – | 82.56
345.53 K | – | 86.85
346.86 K | – | 90.81
348.09 K | – | 94.63
348.75 K | – | 96.74
349.45 K | – | 98.97
349.56 K | – | 99.36
349.76 K | – | 100.07
349.93 K | – | 100.68
350.15 K | – | 101.32
351.12 K | – | 104.65
351.77 K | – | 106.84
352.12 K | – | 108.13
352.94 K | – | 111.21
353.91 K | – | 114.65
354.43 K | – | 116.46
354.93 K | – | 118.56
355.5 K | – | 120.68
355.91 K | – | 122.31
356.37 K | – | 124
357.35 K | – | 127.89
357.92 K | – | 130
358.74 K | – | 133.45
359.44 K | – | 136.34
360.03 K | – | 139.07
360.88 K | – | 142.55
361.73 K | – | 146.37
362.62 K | – | 150.43
363.72 K | – | 155.58
364.25 K | – | 157.94
364.81 K | – | 160.53
365.52 K | – | 163.99
366.29 K | – | 167.81
367 K | – | 171.33
367.64 K | – | 174.65
367.98 K | – | 176.37
368.83 K | – | 180.88
369.49 K | – | 184.43
370.07 K | – | 187.47
370.69 K | – | 190.92
371.5 K | – | 195.35
